From PubChem BioAssay AID2060899 (Molecular Pharmacology Branch, DTP, NCI, 2025)

Test system: 565726-208-R1-J5-PDC complex spheroids, growth inhibition
Assay: Anticancer human tumor 565726-208-R1-J5-PDC patient-derived pancreatic adenocarcinoma cell line growth inhibition [RAS]
Conditions: for IC50: curve of first compound; for viability, T/C: stronger effect = lower value
Method in brief: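 Agents were tested in combination matrices in half-log decrements from a top concentration at or near clinical Cmax (10 microM if undetermined). Targets were multi-cell spheroids of tumour lines plus HUVEC and MSC stromal cells.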

[1] = second compound 0.0316 µM, first compound 0.0316 µM
[2] = second compound 0.0316 µM, first compound 0.1 µM
[3] = second compound 0.0316 µM, first compound 0.316 µM
[4] = second compound 0.0316 µM, first compound 1 µM
[5] = second compound 0.0316 µM, first compound 3.16 µM
[6] = second compound 0.0316 µM, first compound 10 µM
[7] = second compound 0.1 µM, first compound 0.0316 µM
[8] = second compound 0.1 µM, first compound 0.1 µM
[9] = second compound 0.1 µM, first compound 0.316 µM
[10] = second compound 0.1 µM, first compound 1 µM
[11] = second compound 0.1 µM, first compound 3.16 µM
[12] = second compound 0.1 µM, first compound 10 µM
[13] = second compound 0.316 µM, first compound 0.0316 µM
[14] = second compound 0.316 µM, first compound 0.1 µM
[15] = second compound 0.316 µM, first compound 0.316 µM
[16] = second compound 0.316 µM, first compound 1 µM
[17] = second compound 0.316 µM, first compound 3.16 µM
[18] = second compound 0.316 µM, first compound 10 µM
[19] = second compound 1 µM, first compound 0.0316 µM
[20] = second compound 1 µM, first compound 0.1 µM
[21] = second compound 1 µM, first compound 0.316 µM
[22] = second compound 1 µM, first compound 1 µM
[23] = second compound 1 µM, first compound 3.16 µM
[24] = second compound 1 µM, first compound 10 µM
[25] = second compound 3.16 µM, first compound 0.0316 µM
[26] = second compound 3.16 µM, first compound 0.1 µM
[27] = second compound 3.16 µM, first compound 0.316 µM
[28] = second compound 3.16 µM, first compound 1 µM
[29] = second compound 3.16 µM, first compound 3.16 µM
[30] = second compound 3.16 µM, first compound 10 µM
[31] = second compound 10 µM, first compound 0.0316 µM
[32] = second compound 10 µM, first compound 0.1 µM
[33] = second compound 10 µM, first compound 0.316 µM
[34] = second compound 10 µM, first compound 1 µM
[35] = second compound 10 µM, first compound 3.16 µM
[36] = second compound 10 µM, first compound 10 µM
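Note: spheroids exposed to compounds for seven days before readout.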
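Throughout, for viability, T/C: 100% = DMSO vehicle control viability.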

`CC1(O)CCCC1n1c(=O)c(C(F)F)cc2cnc(NC3CCN(S(C)(=O)=O)CC3)nc21` (stereo unspecified) + C#Cc1c(F)ccc2cc(O)cc(-c3ncc4c(N5CC6CCC(C5)N6)nc(OCC56CCCN5CC(F)C6)nc4c3F)c12 gave an IC50 (second compound 0.0316 µM) of 3320 nM, an IC50 (second compound 0.1 µM) of 3290 nM and an IC50 (second compound 0.316 µM) of 3900 nM. It also gave an IC50 (second compound 1 µM) of 1540 nM, an IC50 (second compound 3.16 µM) of 1140 nM and an IC50 (second compound 10 µM) of 606 nM. It also gave a viability, T/C [1] of 82.3%, a viability, T/C [2] of 87.4% and a viability, T/C [3] of 76.7%. The viability, T/C [4] was 56.2%, the viability, T/C [5] was 62.2% and the viability, T/C [6] was 5.34%. For the same compound, the viability, T/C [7] was 93.8%, the viability, T/C [8] was 103% and the viability, T/C [9] was 69.9%. It also gave a viability, T/C [10] of 65.9%, a viability, T/C [11] of 63.7% and a viability, T/C [12] of 4.76%. For the same compound, the viability, T/C [13] was 91.6%, the viability, T/C [14] was 95% and the viability, T/C [15] was 75.6%. For the same compound, the viability, T/C [16] was 66.2%, the viability, T/C [17] was 69% and the viability, T/C [18] was 5.83%. For the same compound, the viability, T/C [19] was 96%, the viability, T/C [20] was 93.9% and the viability, T/C [21] was 59.7%. For the same compound, the viability, T/C [22] was 55%, the viability, T/C [23] was 50.9% and the viability, T/C [24] was 5.01%. It also gave a viability, T/C [25] of 88.4%, a viability, T/C [26] of 81.7% and a viability, T/C [27] of 55.6%. It also gave a viability, T/C [28] of 50%, a viability, T/C [29] of 46.4% and a viability, T/C [30] of 2.99%. For the same compound, the viability, T/C [31] was 78.8%, the viability, T/C [32] was 67.1% and the viability, T/C [33] was 53.1%. The viability, T/C [34] was 43.9%, the viability, T/C [35] was 32.4% and the viability, T/C [36] was 0.3%.

`Cc1nc(N2CCC3(CC2)COC(C)C3N)c(CO)nc1Sc1ccnc(N)c1Cl` (stereo unspecified) + C#Cc1c(F)ccc2cc(O)cc(-c3ncc4c(N5CC6CCC(C5)N6)nc(OCC56CCCN5CC(F)C6)nc4c3F)c12 was tested, and the IC50 (second compound 0.0316 µM) was greater than 10000 nM, the IC50 (second compound 0.1 µM) was greater than 10000 nM and the IC50 (second compound 0.316 µM) was greater than 10000 nM. It also gave an IC50 (second compound 1 µM) greater than 10000 nM, an IC50 (second compound 3.16 µM) of 313 nM and an IC50 (second compound 10 µM) of 229 nM. The viability, T/C [1] was 116%, the viability, T/C [2] was 125% and the viability, T/C [3] was 79.6%. It also gave a viability, T/C [4] of 77.1%, a viability, T/C [5] of 90.7% and a viability, T/C [6] of 104%. For the same compound, the viability, T/C [7] was 103%, the viability, T/C [8] was 112% and the viability, T/C [9] was 71.6%. It also gave a viability, T/C [10] of 72.8%, a viability, T/C [11] of 92.4% and a viability, T/C [12] of 101%. For the same compound, the viability, T/C [13] was 130%, the viability, T/C [14] was 108% and the viability, T/C [15] was 74.5%. It also gave a viability, T/C [16] of 67.8%, a viability, T/C [17] of 90.2% and a viability, T/C [18] of 80.3%. For the same compound, the viability, T/C [19] was 119%, the viability, T/C [20] was 106% and the viability, T/C [21] was 55.8%. It also gave a viability, T/C [22] of 53.4%, a viability, T/C [23] of 57.8% and a viability, T/C [24] of 71.1%. It also gave a viability, T/C [25] of 108%, a viability, T/C [26] of 94.5% and a viability, T/C [27] of 49.6%. The viability, T/C [28] was 42.8%, the viability, T/C [29] was 46% and the viability, T/C [30] was 57.3%. For the same compound, the viability, T/C [31] was 80.9%, the viability, T/C [32] was 66.1% and the viability, T/C [33] was 43.5%. It also gave a viability, T/C [34] of 35.9%, a viability, T/C [35] of 34.6% and a viability, T/C [36] of 33%.

For `CCc1c2c(nc3ccc(O)cc13)-c1cc3c(c(=O)n1C2)COC(=O)[C@]3(O)CC` + CCn1c(-c2cc(N3CCN(C)CC3)cnc2C(C)OC)c2c3cc(ccc31)-c1csc(n1)CC(NC(=O)C1CC1C)C(=O)N1CCCC(N1)C(=O)OCC(C)(C)C2, the IC50 (second compound 0.000949 µM) was 1.36 nM, the IC50 (second compound 0.003 µM) was less than 0.949 nM and the IC50 (second compound 0.00949 µM) was less than 0.949 nM. For the same compound, the IC50 (second compound 0.03 µM) was less than 0.949 nM, the IC50 (second compound 0.0949 µM) was less than 0.949 nM and the IC50 (second compound 0.3 µM) was less than 0.949 nM. The viability, T/C (second compound 0.000949 µM, first compound 0.000949 µM) was 58%, the viability, T/C (second compound 0.000949 µM, first compound 0.003 µM) was 32.1% and the viability, T/C (second compound 0.000949 µM, first compound 0.00949 µM) was 21.2%. It also gave a viability, T/C (second compound 0.000949 µM, first compound 0.03 µM) of 16.2%, a viability, T/C (second compound 0.000949 µM, first compound 0.0949 µM) of 9.45% and a viability, T/C (second compound 0.000949 µM, first compound 0.3 µM) of 5.7%. The viability, T/C (second compound 0.003 µM, first compound 0.000949 µM) was 47.9%, the viability, T/C (second compound 0.003 µM, first compound 0.003 µM) was 32.1% and the viability, T/C (second compound 0.003 µM, first compound 0.00949 µM) was 25.3%. The viability, T/C (second compound 0.003 µM, first compound 0.03 µM) was 17.7%, the viability, T/C (second compound 0.003 µM, first compound 0.0949 µM) was 12.1% and the viability, T/C (second compound 0.003 µM, first compound 0.3 µM) was 6.82%. It also gave a viability, T/C (second compound 0.00949 µM, first compound 0.000949 µM) of 36.1%, a viability, T/C (second compound 0.00949 µM, first compound 0.003 µM) of 30% and a viability, T/C (second compound 0.00949 µM, first compound 0.00949 µM) of 21.6%. It also gave a viability, T/C (second compound 0.00949 µM, first compound 0.03 µM) of 16%, a viability, T/C (second compound 0.00949 µM, first compound 0.0949 µM) of 12.1% and a viability, T/C (second compound 0.00949 µM, first compound 0.3 µM) of 6.89%. For the same compound, the viability, T/C (second compound 0.03 µM, first compound 0.000949 µM) was 27.9%, the viability, T/C (second compound 0.03 µM, first compound 0.003 µM) was 24.1% and the viability, T/C (second compound 0.03 µM, first compound 0.00949 µM) was 20.7%. For the same compound, the viability, T/C (second compound 0.03 µM, first compound 0.03 µM) was 15.9%, the viability, T/C (second compound 0.03 µM, first compound 0.0949 µM) was 11.9% and the viability, T/C (second compound 0.03 µM, first compound 0.3 µM) was 6.36%. The viability, T/C (second compound 0.0949 µM, first compound 0.000949 µM) was 22.6%, the viability, T/C (second compound 0.0949 µM, first compound 0.003 µM) was 23.4% and the viability, T/C (second compound 0.0949 µM, first compound 0.00949 µM) was 18.6%. For the same compound, the viability, T/C (second compound 0.0949 µM, first compound 0.03 µM) was 13.6%, the viability, T/C (second compound 0.0949 µM, first compound 0.0949 µM) was 10.4% and the viability, T/C (second compound 0.0949 µM, first compound 0.3 µM) was 6.38%. For the same compound, the viability, T/C (second compound 0.3 µM, first compound 0.000949 µM) was 21.4%, the viability, T/C (second compound 0.3 µM, first compound 0.003 µM) was 20.8% and the viability, T/C (second compound 0.3 µM, first compound 0.00949 µM) was 15.6%. The viability, T/C (second compound 0.3 µM, first compound 0.03 µM) was 14.6%, the viability, T/C (second compound 0.3 µM, first compound 0.0949 µM) was 10.7% and the viability, T/C (second compound 0.3 µM, first compound 0.3 µM) was 5.7%.
